Measured values published in the OligoGym collection.
Values joined by “and” are separate entries in the source; they are usually repeats but may differ in a detail not shown here. Equal values may be shown once. After the bases stand the sugars from the 5' end (letter, count) and the backbone: PS all phosphorothioate, else s phosphorothioate and o phosphodiester by linkage. Methylation of C is not given here. k = constrained ethyl (cEt); d = 2'-deoxy (DNA)

What follows are sequences tested against MALAT1. Conditions: ASO, A431, 0.005 µM.

Sequence | target mRNA inhibition
CTGTTAACAGCTGCCT (sugars k3 d10 k3, PS) | 52%
TTTGGCATATGCAGAT (sugars k3 d10 k3, PS) | 24%
CTACTTAGCTGTGGTT (sugars k3 d10 k3, PS) | 33%
CACAGCGGTACACTCC (sugars k3 d10 k3, PS) | 40%
TATTGGAAAACTTAAC (sugars k3 d10 k3, PS) | 26%
TTTCCCCAATCAAGAT (sugars k3 d10 k3, PS) | -4%
GCGGTACACTCCTTCT (sugars k3 d10 k3, PS) | 28%
AGGGACGGTTGAGAAG (sugars k3 d10 k3, PS) | 14%
CCAAGCCAAGCCGCCT (sugars k3 d10 k3, PS) | 5%
TGCCTTAAAGTTACAT (sugars k3 d10 k3, PS) | 19%
GTAAAACATTGCCTAC (sugars k3 d10 k3, PS) | 24%
GTACACTCCTTCTCTA (sugars k3 d10 k3, PS) | 17%
CTAACCCAGTTTGTCA (sugars k3 d10 k3, PS) | 35%
CGACTTGCTCCCAAGA (sugars k3 d10 k3, PS) | 22%
CAGCTTCCGCTAAGAT (sugars k3 d10 k3, PS) | -11%
AAGCCGCCTGCTACCT (sugars k3 d10 k3, PS) | -16%
AAATCCTGATCTGGTC (sugars k3 d10 k3, PS) | 27%
TTCTGATAACGAAGAG (sugars k3 d10 k3, PS) | 8%
GAAAGTGCTCACAAGG (sugars k3 d10 k3, PS) | 6%
CCAACCCCCAGTTCAA (sugars k3 d10 k3, PS) | 24%
ACCAAATCGCACTGGC (sugars k3 d10 k3, PS) | 3%
TGTTACACCTTGAGTC (sugars k3 d10 k3, PS) | 37%
CTATCTGAAACTCTTG (sugars k3 d10 k3, PS) | 57% and 34%

Sequence | target mRNA inhibition
GTTCAAAGATATTGTG (sugars k3 d10 k3, PS) | 0%
AAACCTGGGCTCCCGG (sugars k3 d10 k3, PS) | 20%
TCCCTTTACACCTCAG (sugars k3 d10 k3, PS) | 25%
CACTTGCCAGTTTAAT (sugars k3 d10 k3, PS) | 29%
CGCTTAAGAGGGCAGG (sugars k3 d10 k3, PS) | 12%
ACTTATCTGTTAACAG (sugars k3 d10 k3, PS) | 25%
ACTACTCCAAGCATTG (sugars k3 d10 k3, PS) | 36%
CTTTTTAAAAGATCGC (sugars k3 d10 k3, PS) | 31%
ATGTTAAGAGAAGCCC (sugars k3 d10 k3, PS) | -17%
AAGCTACAACAAGTAA (sugars k3 d10 k3, PS) | 10%
GAATACTCTTCCAAGG (sugars k3 d10 k3, PS) | 16%
TGAGGGACAGTAGGTA (sugars k3 d10 k3, PS) | 18%
ATTTAACTTCCCCCAG (sugars k3 d10 k3, PS) | 18%
CTCCGAAGACACAGAG (sugars k3 d10 k3, PS) | -3%
ACACCTTGAGTCATTT (sugars k3 d10 k3, PS) | 50%
ACTAGCACCTGCAGAG (sugars k3 d10 k3, PS) | 23%
CTCCATGAAGAAGCTT (sugars k3 d10 k3, PS) | 49%
TCCACCCCCACGCCAA (sugars k3 d10 k3, PS) | -9%
ATATTTTGCCCCCACC (sugars k3 d10 k3, PS) | 2%
GGATGAAATGCCTCTG (sugars k3 d10 k3, PS) | 24%
CCTCAATGCCTACCGC (sugars k3 d10 k3, PS) | 17%
TTGCTCGCTTGCTCCT (sugars k3 d10 k3, PS) | 40%
TTGCCCGCTTTCCCCC (sugars k3 d10 k3, PS) | 19%

Sequence | target mRNA inhibition
TCCAGGACTTGGCAGT (sugars k3 d10 k3, PS) | 23%
TATAGACGGAGAACAA (sugars k3 d10 k3, PS) | 30%
ATAGACGGAGAACAAC (sugars k3 d10 k3, PS) | 21%
ACGGTTGAGAAGTGGC (sugars k3 d10 k3, PS) | 22%
GCTAGCTTGGCCAAGT (sugars k3 d10 k3, PS) | 2%
CCAAATCGCACTGGCT (sugars k3 d10 k3, PS) | 16%
TCTTACTTGATAATAC (sugars k3 d10 k3, PS) | 10%
GGTGAGGCTGACACTT (sugars k3 d10 k3, PS) | 27%
AGGATGTATATAGTTC (sugars k3 d10 k3, PS) | 2%
AGCACCGCTTGAGATT (sugars k3 d10 k3, PS) | 42% and 20%
CTCCGTGTGGTTGCCA (sugars k3 d10 k3, PS) | 24%
TGTTAAGACCATCCCA (sugars k3 d10 k3, PS) | 9%
CCAAAAGCTCTATACT (sugars k3 d10 k3, PS) | 12%
AGACCAACCCCCAGTT (sugars k3 d10 k3, PS) | 0%
CACTCTAAGATTGTAA (sugars k3 d10 k3, PS) | 33%
CTCATACACTCACTAG (sugars k3 d10 k3, PS) | 0%
ACAAATACGACTGCTT (sugars k3 d10 k3, PS) | 16%
AGGCAAATTAATGGCC (sugars k3 d10 k3, PS) | 8%
TTCAACTGGAAGCTCC (sugars k3 d10 k3, PS) | 58% and 57%
TCGGATGCTTCACTCC (sugars k3 d10 k3, PS) | 37%
CTAACATGCAATACTG (sugars k3 d10 k3, PS) | 1%
AATTACACCAGTCCTT (sugars k3 d10 k3, PS) | 42%
ATCTGCGGTTTCCTCA (sugars k3 d10 k3, PS) | 58%

Sequence | target mRNA inhibition
CAAGAACTAGCACCTG (sugars k3 d10 k3, PS) | 7%
GCTCGATGGAAAAATT (sugars k3 d10 k3, PS) | 10%
AGCTTCAATCACAAAT (sugars k3 d10 k3, PS) | 23%
AACATATTGCCGACCT (sugars k3 d10 k3, PS) | 45%
CATCAAGGCACTGATC (sugars k3 d10 k3, PS) | 13%
CACTGGATAAGTATTA (sugars k3 d10 k3, PS) | 40%
TCTCCGAAGACACAGA (sugars k3 d10 k3, PS) | 0%
GAGTATAAGCCTGAAA (sugars k3 d10 k3, PS) | 16%
GTATGCTGATAAACTC (sugars k3 d10 k3, PS) | 52%
CTCCCCGCCTGAGCCC (sugars k3 d10 k3, PS) | -23%
AATCACTACTCCAAGC (sugars k3 d10 k3, PS) | 29%
TTCTGAACCGGAGCAG (sugars k3 d10 k3, PS) | 23%
ACGCAACTGAGCCCCA (sugars k3 d10 k3, PS) | -44%
CTCCCCCATTATATTA (sugars k3 d10 k3, PS) | 31%
TCAATTTATAGACCCC (sugars k3 d10 k3, PS) | 47%
GAGTAACTACCAGCCA (sugars k3 d10 k3, PS) | 37%
TTATCAATTCACCAAG (sugars k3 d10 k3, PS) | 25%
TCTAACAGCACATCAT (sugars k3 d10 k3, PS) | 22%
GCAGGCAAATTAATGG (sugars k3 d10 k3, PS) | 45%
AGATATTGTGCTGTTA (sugars k3 d10 k3, PS) | 17%
AACTTATCTGTTAACA (sugars k3 d10 k3, PS) | 30%
GTCTCGGGCTGCAGGC (sugars k3 d10 k3, PS) | -6%
CCAAGCACTCATATGC (sugars k3 d10 k3, PS) | 12%

Sequence | target mRNA inhibition
ATTAATGCACTGGTAC (sugars k3 d10 k3, PS) | 16%
GACCAACCCCCAGTTC (sugars k3 d10 k3, PS) | 3%
AGCCAAGCACTCATAT (sugars k3 d10 k3, PS) | 17%
CTGCCAGGCTGGTTAT (sugars k3 d10 k3, PS) | 1%
TCTCATTTATTTCGGC (sugars k3 d10 k3, PS) | 79% and 93%
GGGCTTTACTTTCCAT (sugars k3 d10 k3, PS) | 16%
GCTCATCACTTTATGA (sugars k3 d10 k3, PS) | 10%
TCGCCTTCAAATTATT (sugars k3 d10 k3, PS) | 35%
GAATTCAACTGGAAGC (sugars k3 d10 k3, PS) | 7%
CTTCCCTATATAAGGT (sugars k3 d10 k3, PS) | 10%
AAATCGGAGCAGCACG (sugars k3 d10 k3, PS) | 16%
CGACCTCACGGATTTT (sugars k3 d10 k3, PS) | 16%
CGCCTTTGTGAGGGAG (sugars k3 d10 k3, PS) | -3%
ACCGGAGCAGGAAGAA (sugars k3 d10 k3, PS) | 4%
ACGGAAATTTTTCTAC (sugars k3 d10 k3, PS) | 4%
TCTAAAAGCATTGCCC (sugars k3 d10 k3, PS) | 29%
ATGCTTATTCCCCAAT (sugars k3 d10 k3, PS) | 52%
TCAGACCTTCTGAACC (sugars k3 d10 k3, PS) | -6%
CTAGGATCCTCTACGC (sugars k3 d10 k3, PS) | 11%
GATGCTAGCTTGGCCA (sugars k3 d10 k3, PS) | -2%
TCCCCAATCAAGATTT (sugars k3 d10 k3, PS) | 18%
GGGTTAAGCACTTTTA (sugars k3 d10 k3, PS) | 57%
